Data from patent US9139809B2, “Bacterial vaccines with cell wall-associated ceramide-like glycolipids and uses thereof” (priority 2009, dated 2015).

Columns and labels:
[1] = system: M. tuberculosis H37Rv; settings: in vivo
[2] = system: serum cytokines; settings: mice, cited from earlier work
[3] = system: tumor and malaria; settings: mice; cited from earlier work
[4] = system: M. tuberculosis; settings: αGalCer as a therapeutic; cited from earlier work
[5] = system: malarial parasite; settings: mice, αGalCer as a therapeutic; cited from earlier work

CCCCCCCCCCCCCCCCCCCCCCCCCC(=O)N[C@@H](CCC1OC(CO)C(O)C(O)C1O)[C@H](O)[C@H](O)CCCCCCCCCCCCCC (stereo partly drawn) [α-C-GalCer, (2S,3S,4R)-1-CH2-(α-galactopyranosyl)-N-hexacosanoyl-2-amino-1,3,4-octadecanetriol]
improvement of the protective efficacy of BCG, comparison of the two glycolipids [1]: superior to αGalCer | levels of Th1 cytokines IL-12 and IFNγ ([2]; compared with αGalCer): induces higher levels | anti-tumor and anti-malarial activity compared with αGalCer [3]: superior anti-tumor and anti-malarial activity as compared to αGalCer

CCCCCCCCCCCCCCCCCCCCCCCCCC(=O)N[C@@H](CO[C@H]1O[C@H](CO)[C@H](O)[C@H](O)[C@H]1O)[C@H](O)[C@H](O)CCCCCCCCCCCCCC [αGalCer, (2S,3S,4R)-1-O-(α-D-galactopyranosyl)-N-hexacosanoyl-2-amino-1,3,4-octadecanetriol]
serum cytokines after a single injection (IFNγ, IL-12 and IL-4) ([2]; single injection): induces a cytokine storm in the serum | survival of M. tuberculosis infected mice [4]: prolong the survival | malarial parasite load [5]: reduce malarial parasite load
